Experimental data: patent US12552783B2, “Modulators of proteolysis and associated methods of use” (Arvinas Operations, Inc., priority 2018, dated 2026)
Blank lines part the entries; values can stand above or below the molecule they belong to.

What was measured:
[1] = target: T1, KRas (Homo sapiens, UniProt P01116, G12C); assay: KRas degradation in SW1573 cells by Western blot, normalized to GAPDH (data of Table 14); assay type: cell-based; conditions: SW1573 cells
Outline: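 SW1573 cells, homozygous for the KRas G12C mutation and maintained in DMEM with 10% FBS and 1% penicillin-streptomycin, were seeded in 12-well plates, allowed to attach overnight at 37° C. under 5% CO2, then serum-starved for 24 hours before compound exposure. KRas levels were measured by Western blot, normalized to GAPDH, and compared with DMSO controls to give percent degradation, DC50 and Dmax.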

[2] = target: T1, KRas; assay: KRas degradation in NCI-H2030 cells by Western blot, normalized to GAPDH (data of Table 14); assay type: cell-based; design: host or cells: NCI-H2030; conditions: H2030 cells
Outline: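 After a day without serum, the G12C-homozygous cells received each compound at 0.3, 1 and 3 μM, with VHL-based degraders left for 24 h and other compounds for 72 h. DC50 is the concentration giving half-maximal degradation and DMax the maximal degradation, both taken from KRas levels normalized to GAPDH.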

Structure (SMILES): C=CC(=O)N1CCN(c2nc(O[C@H](C)CN3CCC(OCCOCCOCCOCCOCCOc4ccc5c(c4)C(=O)N(C4CCC(=O)NC4=O)C5=O)CC3)nc3c(F)c(-c4cc(O)cc5ccccc45)c(Cl)cc23)CC1 (stereo partly drawn) [compound 430, 5-((14-((1-((2R)-2-((4-(4-acryloylpiperazin-1-yl)-6-chloro-8-fluoro-7-(3-hydroxynaphthalen-1-yl)quinazolin-2-yl)oxy)propyl)piperidin-4-yl)oxy)-3,6,9,12-tetraoxatetradecyl)oxy)-2-(2,6-dioxopiperidin-3-yl)isoindoline-1,3-dione]
- Percent Degradation at Indicated Concentration (μM) ([1]; 0.1 μM): C (Percent Degradation: C ≤ 35)
- Percent Degradation at Indicated Concentration (μM) ([1]; 0.3 μM): C (Percent Degradation: C ≤ 35)
- Percent Degradation at Indicated Concentration (μM) ([1]; 1 μM): C (Percent Degradation: C ≤ 35)

Structure (SMILES): C=CC(=O)N1CCN(c2nc(O[C@H](C)CN3CCC(OCCOCCOCCOc4ccc5c(c4)C(=O)N(C4CCC(=O)NC4=O)C5=O)CC3)nc3c(F)c(-c4cc(O)cc5ccccc45)c(Cl)cc23)CC1 (stereo partly drawn) [compound 428, 5-(2-(2-(2-((1-((2R)-2-((4-(4-acryloylpiperazin-1-yl)-6-chloro-8-fluoro-7-(3-hydroxynaphthalen-1-yl)quinazolin-2-yl)oxy)propyl)piperidin-4-yl)oxy)ethoxy)ethoxy)ethoxy)-2-(2,6-dioxopiperidin-3-yl)isoindoline-1,3-dione]
- Percent Degradation at Indicated Concentration (μM) ([1]; 0.1 μM): C (Percent Degradation: C ≤ 35)
- Percent Degradation at Indicated Concentration (μM) ([1]; 0.3 μM): C (Percent Degradation: C ≤ 35)
- Percent Degradation at Indicated Concentration (μM) ([1]; 1 μM): C (Percent Degradation: C ≤ 35)

Structure (SMILES): C=CC(=O)N1CCN(c2nc(O[C@H](C)CN3CCC(OCCNc4cccc5c4C(=O)N(C4CCC(=O)NC4=O)C5=O)CC3)nc3c2CCN(c2cc(O)cc4ccccc24)C3)CC1 (stereo partly drawn) [compound 411, 4-((2-((1-((R)-2-((4-(4-acryloylpiperazin-1-yl)-7-(3-hydroxynaphthalen-1-yl)-5,6,7,8-tetrahydropyrido[3,4-d]pyrimidin-2-yl)oxy)propyl)piperidin-4-yl)oxy)ethyl)amino)-2-(2,6-dioxopiperidin-3-yl)isoindoline-1,3-dione]
- Percent Degradation at Indicated Concentration (μM) ([1]; 0.1 μM): C (Percent Degradation: C ≤ 35)
- Percent Degradation at Indicated Concentration (μM) ([1]; 0.3 μM): C (Percent Degradation: C ≤ 35)
- Percent Degradation at Indicated Concentration (μM) ([1]; 1 μM): C (Percent Degradation: C ≤ 35)

Structure (SMILES): Cc1ncsc1-c1ccc([C@H](C)NC(=O)[C@@H]2C[C@@H](O)CN2C(=O)[C@@H](NC(=O)COCCOCCOC2CCN(C[C@@H](C)Oc3nc(N4CCN(C(=O)C(O)O)CC4)c4cc(Cl)c(-c5cc(O)cc6ccccc56)c(F)c4n3)CC2)C(C)(C)C)cc1 [compound 245, (2S,4R)-1-((2S)-2-(2-(2-(2-((1-((2R)-2-((6-chloro-4-(4-(2,2-dihydroxyacetyl)piperazin-1-yl)-8-fluoro-7-(3-hydroxynaphthalen-1-yl)quinazolin-2-yl)oxy)propyl)piperidin-4-yl)oxy)ethoxy)ethoxy)acetamido)-3,3-dimethylbutanoyl)-4-hydroxy-N-((S)-1-(4-(4-methylthiazol-5-yl)phenyl)ethyl)pyrrolidine-2-carboxamide]
- Percent Degradation at Indicated Concentration (μM) ([1]; 0.1 μM): C (Percent Degradation: C ≤ 35)
- Percent Degradation at Indicated Concentration (μM) ([1]; 0.3 μM): C (Percent Degradation: C ≤ 35)
- Percent Degradation at Indicated Concentration (μM) ([1]; 1 μM): C (Percent Degradation: C ≤ 35)

Other lines, results leading:

- DC50 [1]: ≥ 1000 nM
- Dmax [1]: ≤ 35%
- Percent Degradation at Indicated Concentration (μM) ([1]; 0.01 μM): C (Percent Degradation: C ≤ 35)
- Percent Degradation at Indicated Concentration (μM) ([1]; 0.03 μM): C (Percent Degradation: C ≤ 35)
- Percent Degradation at Indicated Concentration (μM) ([1]; 0.1 μM): C (Percent Degradation: C ≤ 35)
- Percent Degradation at Indicated Concentration (μM) ([1]; 0.3 μM): C (Percent Degradation: C ≤ 35)
- Percent Degradation at Indicated Concentration (μM) ([1]; 1 μM): C (Percent Degradation: C ≤ 35)
- Percent Degradation at Indicated Concentration (μM) ([2]; 0.3 μM): C (Percent Degradation: C ≤ 35)
- Percent Degradation at Indicated Concentration (μM) ([2]; 1 μM): C (Percent Degradation: C ≤ 35)
- Percent Degradation at Indicated Concentration (μM) ([2]; 3 μM): C (Percent Degradation: C ≤ 35)
- Dmax ([2]; NCI-H2030): ≤ 35%
Structure (SMILES): C=CC(=O)N1CCN(c2nc(O[C@H](C)CN3CCC(OCCOCCOCCOCCOCC(=O)N[C@H](C(=O)N4C[C@H](O)C[C@H]4C(=O)N[C@@H](C)c4ccc(-c5scnc5C)cc4)C(C)(C)C)CC3)nc3c(F)c(-c4cc(O)cc5ccccc45)c(Cl)cc23)CC1 [compound 401, (2S,4R)-1-((2S)-17-((1-((2R)-2-((4-(4-acryloylpiperazin-1-yl)-6-chloro-8-fluoro-7-(3-hydroxynaphthalen-1-yl)quinazolin-2-yl)oxy)propyl)piperidin-4-yl)oxy)-2-(tert-butyl)-4-oxo-6,9,12,15-tetraoxa-3-azaheptadecanoyl)-4-hydroxy-N-((S)-1-(4-(4-methylthiazol-5-yl)phenyl)ethyl)pyrrolidine-2-carboxamide]

- Percent Degradation at Indicated Concentration (μM) ([1]; 0.1 μM): B (35 < B < 70)
- Percent Degradation at Indicated Concentration (μM) ([1]; 0.3 μM): A (A > 70)
- Percent Degradation at Indicated Concentration (μM) ([1]; 1 μM): A (A > 70)
Structure (SMILES): C=CC(=O)N1CCN(c2nc(O[C@H](C)CN3CCN(CC4CCN(CC(=O)N[C@H](C(=O)N5C[C@H](O)C[C@H]5C(=O)N[C@@H](C)c5ccc(-c6scnc6C)cc5)C(C)(C)C)CC4)CC3)nc3c(F)c(-c4cc(O)cc5ccccc45)c(Cl)cc23)CC1 [compound 404, (2S,4R)-1-((2S)-2-(2-(4-((4-((2R)-2-((4-(4-acryloylpiperazin-1-yl)-6-chloro-8-fluoro-7-(3-hydroxynaphthalen-1-yl)quinazolin-2-yl)oxy)propyl)piperazin-1-yl)methyl)piperidin-1-yl)acetamido)-3,3-dimethylbutanoyl)-4-hydroxy-N-((S)-1-(4-(4-methylthiazol-5-yl)phenyl)ethyl)pyrrolidine-2-carboxamide]

- Percent Degradation at Indicated Concentration (μM) ([1]; 0.03 μM): C (Percent Degradation: C ≤ 35)
- Percent Degradation at Indicated Concentration (μM) ([1]; 0.1 μM): C (Percent Degradation: C ≤ 35)
- Percent Degradation at Indicated Concentration (μM) ([1]; 0.3 μM): C (Percent Degradation: C ≤ 35)
Structure (SMILES): C=CC(=O)N1CCN(c2nc(O[C@H](C)CN3CCC(OCCOCCOCCOCCOCCOc4cc(C(C(=O)N5C[C@H](O)C[C@H]5C(=O)N[C@@H](C)c5ccc(-c6scnc6C)cc5)C(C)C)on4)CC3)nc3c(F)c(-c4cc(O)cc5ccccc45)c(Cl)cc23)CC1 (stereo in doubt) [compound 532, (2S,4R)-1-((2R)-2-(3-((14-((1-((2R)-2-((4-(4-acryloylpiperazin-1-yl)-6-chloro-8-fluoro-7-(3-hydroxynaphthalen-1-yl)quinazolin-2-yl)oxy)propyl)piperidin-4-yl)oxy)-3,6,9,12-tetraoxatetradecyl)oxy)isoxazol-5-yl)-3-methylbutanoyl)-4-hydroxy-N-((S)-1-(4-(4-methylthiazol-5-yl)phenyl)ethyl)pyrrolidine-2-carboxamide]

- Percent Degradation at Indicated Concentration (μM) ([1]; 0.1 μM): C (Percent Degradation: C ≤ 35)
- Percent Degradation at Indicated Concentration (μM) ([1]; 0.3 μM): C (Percent Degradation: C ≤ 35)
- Percent Degradation at Indicated Concentration (μM) ([1]; 1 μM): C (Percent Degradation: C ≤ 35)
Structure (SMILES): C=CC(=O)N1CCN(c2nc(O[C@H](C)CN3CCC(OCCOCCOc4cc(-c5scnc5C)ccc4CNC(=O)[C@@H]4C[C@@H](O)CN4C(=O)[C@H](c4cc(C)no4)C(C)C)CC3)nc3c2CCN(c2cc(O)cc4ccccc24)C3)CC1 [compound 439, (2S,4R)-N-(2-(2-(2-((1-((R)-2-((4-(4-acryloylpiperazin-1-yl)-7-(3-hydroxynaphthalen-1-yl)-5,6,7,8-tetrahydropyrido[3,4-d]pyrimidin-2-yl)oxy)propyl)piperidin-4-yl)oxy)ethoxy)ethoxy)-4-(4-methylthiazol-5-yl)benzyl)-4-hydroxy-1-((S)-3-methyl-2-(3-methylisoxazol-5-yl)butanoyl)pyrrolidine-2-carboxamide]

- Percent Degradation at Indicated Concentration (μM) ([1]; 0.1 μM): C (Percent Degradation: C ≤ 35)
- Percent Degradation at Indicated Concentration (μM) ([1]; 0.3 μM): C (Percent Degradation: C ≤ 35)
- Percent Degradation at Indicated Concentration (μM) ([1]; 1 μM): C (Percent Degradation: C ≤ 35)
Structure (SMILES): C=CC(=O)N1CCN(c2nc(O[C@H](C)CN3CCC(OCCOc4cc(-c5scnc5C)ccc4CNC(=O)[C@@H]4C[C@@H](O)CN4C(=O)[C@H](c4cc(C)no4)C(C)C)CC3)nc3c2CCN(c2cc(O)cc4ccccc24)C3)CC1 [compound 437, (2S,4R)-N-(2-(2-((14(R)-2-((4-(4-acryloylpiperazin-1-yl)-7-(3-hydroxynaphthalen-1-yl)-5,6,7,8-tetrahydropyrido[3,4-d1pyrimidin-2-yl)oxy)propyl)piperidin-4-yl)oxy)ethoxy)-4-(4-methylthiazo1-5-yl)benzyl)-4-hydroxy-1-((S)-3-methyl-2-(3-methylisoxazol-5-yl)butanoyl)pyrrolidine-2-carboxamide]

- Percent Degradation at Indicated Concentration (μM) ([1]; 0.03 μM): C (Percent Degradation: C ≤ 35)
- Percent Degradation at Indicated Concentration (μM) ([1]; 0.1 μM): C (Percent Degradation: C ≤ 35)
- Percent Degradation at Indicated Concentration (μM) ([1]; 0.3 μM): C (Percent Degradation: C ≤ 35)
Structure (SMILES): C=CC(=O)N1CCN(c2nc(O[C@H](C)CN3CCC(OCCOCCOc4cc([C@@H](C(=O)N5C[C@H](O)C[C@H]5C(=O)N[C@@H](C)c5ccc(-c6scnc6C)cc5)C(C)C)on4)CC3)nc3c(F)c(-c4cc(O)cc5ccccc45)c(Cl)cc23)CC1 [compound 526, (2S,4R)-1-((2S)-2-(3-(2-(2-((1-((2R)-2-((4-(4-acryloylpiperazin-1-yl)-6-chloro-8-fluoro-7-(3-hydroxynaphthalen-1-yl)quinazolin-2-yl)oxy)propyl)piperidin-4-yl)oxy)ethoxy)ethoxy)isoxazol-5-yl)-3-methylbutanoyl)-4-hydroxy-N-((S)-1-(4-(4-methylthiazol-5-yl)phenyl)ethyl)pyrrolidine-2-carboxamide]
